Measurements taken from patent US11274097B2, “2-(het)aryl-substituted condensed bicyclic heterocycle derivatives as pest control agents” (BAYER CROPSCIENCE AKTIENGESELLSCHAFT, priority 2014, dated 2022).
“And” between values parts separate entries of the source, which are not always exact repeats. Equal entries are not always repeated.

Legend:
Myzus persicae [1] = experiment: Myzus persicae contact test (MYZUPE c); format: in vivo; conditions: 2.4 g/ha, 14 dat
Protocol: Myzus persicae—Contact Test (MYZUPE c)
(§1) Solvent: 7 parts by weight of dimethylformamide
(§2) Emulsifier: alkylaryl poly glycol ether
(§3) To produce an appropriate active ingredient formulation, 1 part by weight of active ingredient is dissolved using the stated parts by weight of solvent and made up with water containing an emulsifier concentration of 1000 ppm until the desired concentration is attained. To produce further test concentrations, the preparation is diluted with emulsifier-containing water. In the event that addition of ammonium salts or/and penetrants (rapeseed oil methyl ester) is required, these are each pipetted in a concentration of 1000 ppm after the finished formulation solution has been diluted.
One-leaved bell pepper plants (Capsicum annuum) heavily infested by the green peach aphid (Myzus persicae) are treated by spraying the underside of the leaf with the active ingredient formulation in the desired concentration.
(§4) After the desired time, the kill in % is determined. 100% means that all the aphids have been killed and 0% means that none of the aphids have been killed.

Myzus persicae [2] = experiment: Myzus persicae translaminar test (MYZUPE t); format: in vivo; conditions: 14 dat
Protocol: Myzus persicae—Translaminar Test (MYZUPE t)
as §1, §2, §3
One-leaved bell pepper plants (Capsicum annuum) heavily infested by the green peach aphid (Myzus persicae) are treated by spraying the top side of the leaf with the active ingredient formulation in the desired concentration.
as §4

Aphis gossypii [3] = experiment: Aphis gossypii contact test (APHIGO c); format: in vivo; conditions: 2.4 g/ha, 7 dat
Protocol: Aphis gossypii—Contact Test (APHIGO c)
as §1
(§5) Emulsifier: alkylaryl polyglycol ether
as §3
One-leaved cotton plants (Gossypium hirsutum) heavily infested by the cotton aphid (Aphis gossypii) are treated by spraying the underside of the leaf with the active ingredient formulation in the desired concentration.
as §4

Aphis gossypii [4] = experiment: Aphis gossypii translaminar test (APHIGO t); format: in vivo; conditions: 2.4 g/ha, 7 dat
Protocol: Aphis gossypii—Translaminar Test (APHIGO t)
as §1, §5, §3
One-leaved cotton plants (Gossypium hirsutum) heavily infested by the cotton aphid (Aphis gossypii) are treated by spraying the top side of the leaf with the active ingredient formulation in the desired concentration.
as §4

Nephotettix cincticeps = Nephotettix cincticeps test (NEPHCI); format: in vivo; conditions: 0.16 ppm
Protocol: Nephotettix cincticeps Test (NEPHCI)
as §1, §5, §3
Rice plants (Oryza sativa, var. Balilla) are treated by spraying with the active ingredient formulation in the desired concentration and then populated with larvae of the green rice leafhopper (Nephotettix cincticeps).
After the desired time, the kill in % is determined. 100% means that all leafhoppers have been killed; 0% means that none of the leafhoppers have been killed.

Nilaparvata lugens = Nilaparvata lugens test (NILALU); format: in vivo; conditions: 4 ppm
Protocol: Nilaparvata lugens Test (NILALU)
as §1, §5, §3
Rice plants (Oryza sativa, var. Balilla) are treated by spraying with the active ingredient formulation in the desired concentration and then populated with L3 larvae of the brown planthopper (Nilaparvata lugens).
After the desired time, the feeding damage in % is determined. 100% means that no feeding damage is found; 0% means that the feeding damage to the treated plant corresponds to that of the untreated control.

[5] = log P by HPLC on a reversed-phase column (C 18), EEC Directive 79/831 Annex V.A8; format: physicochemical; conditions: 55° C.; for LOGP_HCOOH: acidic range, pH 2.7, 0.1% aqueous formic acid/acetonitrile; for LOGP_NEUTRAL: neutral range, pH 7.8, 0.001 molar aqueous ammonium hydrogencarbonate/acetonitrile
Protocol: The log P values are measured according to EEC Directive 79/831 Annex V.A8 by HPLC (high-performance liquid chromatography) on a reversed-phase column (C 18). Temperature: 55° C. The LC-MS determination in the acidic range is effected at pH 2.7 using 0.1% aqueous formic acid and acetonitrile (contains 0.1% formic acid) as eluents, linear gradient from 10% acetonitrile to 95% acetonitrile. Called log P (HCOOH) in the table. LC-MS determination in the neutral range is effected at pH 7.8 with 0.001 molar aqueous ammonium hydrogencarbonate solution and acetonitrile as eluents; linear gradient from 10% acetonitrile to 95% acetonitrile. Called log P (neutral) in the table. Calibration is effected with unbranched alkan-2-ones (having 3 to 16 carbon atoms) with known log P values (log P values determined on the basis of the retention times by linear interpolation between two successive alkanone s).

Phaedon cochleariae = Phaedon cochleariae spray test (PHAECO); format: in vivo; conditions: larvae, after 7 days
Protocol: Phaedon cochleariae—Spray Test (PHAECO)
(§6) Solvent: 78.0 parts by weight of acetone • • 1.5 parts by weight of dimethylformamide
as §5
(§7) To produce an appropriate active ingredient formulation, 1 part by weight of active ingredient is dissolved using the stated parts by weight of solvent and made up with water containing an emulsifier concentration of 1000 ppm until the desired concentration is attained. To produce further test concentrations, the preparation is diluted with emulsifier-containing water.
Discs of Chinese cabbage leaves (Brassica pekinensis) are sprayed with an active ingredient formulation of the desired concentration and, after drying, populated with larvae of the mustard beetle (Phaedon cochleariae).
After 7 days, the efficacy in % is determined. 100% means that all the beetle larvae have been killed; 0% means that no beetle larvae have been killed.

Spodoptera frugiperda = Spodoptera frugiperda spray test (SPODFR); format: in vivo; conditions: application rate 500 g/ha; maize leaf discs; after 7 days
Protocol: Spodoptera frugiperda—Spray Test (SPODFR)
as §6, §5, §7
Leaf discs of maize (Zea mays) are sprayed with an active ingredient formulation of the desired concentration and, after drying, populated with caterpillars of the armyworm (Spodoptera frugiperda).
After 7 days, the efficacy in % is determined. 100% means that all the caterpillars have been killed; 0% means that no caterpillars have been killed.

Tetranychus urticae = Tetranychus urticae spray test, OP-resistant (TETRUR); format: in vivo; conditions: bean leaf discs, after 6 days
Protocol: Tetranychus urticae—Spray Test, OP-Resistant (TETRUR)
as §6, §5, §7
Discs of bean leaves (Phaseolus vulgaris) infested by all stages of the greenhouse red spider mite (Tetranychus urticae) are sprayed with an active ingredient formulation of the desired concentration.
After 6 days, the efficacy in % is determined. 100% means that all the spider mites have been killed; 0% means that none of the spider mites have been killed.

Myzus persicae [6] = experiment: Myzus persicae spray test (MYZUPE), bell pepper plants; format: in vivo; conditions: application rate 100 ppm, after 6 days
Protocol: (§8) Myzus persicae—Spray Test (MYZUPE)
as §1, §2
To produce an appropriate active ingredient formulation, 1 part by weight of active ingredient is dissolved using the stated parts by weight of solvent and made up with water containing an emulsifier concentration of 1000 ppm until the desired concentration is attained. To produce further test concentrations, the preparation is diluted with emulsifier-containing water. If the addition of ammonium salts or/and penetrants is required, these are each added in a concentration of 1000 ppm to the formulation solution.
Bell pepper plants (Capsicum annuum) heavily infested by the green peach aphid (Myzus persicae) are treated by spraying with the active ingredient formulation in the desired concentration.
After 6 days, the kill in % is determined. 100% means that all the aphids have been killed; 0% means that no aphids have been killed.

Ctenocephalides felis = Ctenocephalides felis in vitro contact test; format: in vivo; conditions: application rate 5 μg/cm^2; adult cat fleas; after 48 h
Protocol: Ctenocephalides felis—In Vitro Contact Test
For the coating of the test tubes, 9 mg of active ingredient are first dissolved in 1 ml of acetone p.a. and then diluted to the desired concentration with acetone p.a. 250 μl of the solution are distributed homogeneously on the inner walls and base of a 25 ml test tube by turning and rocking on an orbital shaker (rocking rotation at 30 rpm for 2 h). With 900 ppm active ingredient solution and internal surface 44.7 cm^2, given homogeneous distribution, an area-based dose of 5 μg/cm^2 is achieved.
After the solvent has evaporated off, the tubes are populated with 5-10 adult cat fleas (Ctenocephalides felis), sealed with a perforated plastic lid and incubated in a horizontal position at room temperature and ambient humidity. After 48 h, efficacy is determined. To this end, the test tubes are stood upright and the fleas are knocked to the base of the tube. Fleas which remain motionless at the base or move in an uncoordinated manner are considered to be dead or moribund.
100% efficacy means that all the fleas were dead or moribund. 0% efficacy means that no fleas were harmed.

Lucilia cuprina = Lucilia cuprina test (LUCICU); format: in vivo; conditions: application rate 100 ppm; L1 larvae; after 2 days
Protocol: Lucilia cuprina Test (LUCICU) Solvent: dimethyl sulphoxide To produce an appropriate active ingredient formulation, 10 mg of active ingredient are mixed with 0.5 ml of dimethyl sulphoxide, and the concentrate is diluted with water to the desired concentration. About 20 L1 larvae of the Australian sheep blowfly (Lucilia cuprina) are transferred into a test vessel containing minced horsemeat and the active ingredient preparation of the desired concentration. After 2 days, the kill in % is determined. 100% means that all the larvae have been killed; 0% means that none of the larvae have been killed.

Myzus persicae [7] = experiment: Myzus persicae spray test (MYZUPE), Chinese cabbage leaf discs; format: in vivo; conditions: application rate 500 g/ha, after 6 days
Protocol: as §8
Solvent: 78 parts by weight of acetone • • 1.5 parts by weight of dimethylformamide
as §2, §7
Discs of Chinese cabbage leaves (Brassica pekinensis) infested by all stages of the green peach aphid (Myzus persicae) are sprayed with an active ingredient formulation of the desired concentration.
After 6 days, the efficacy in % is determined. 100% means that all the aphids have been killed; 0% means that none of the aphids have been killed.

Meloidogyne incognita = Meloidogyne incognita test; format: in vivo; conditions: application rate 20 ppm; lettuce; after 14 days
Protocol: Meloidogyne incognita Test Solvent: 125.0 parts by weight of acetone To produce a suitable active ingredient formulation, 1 part by weight of active ingredient is mixed with the stated amount of solvent and the concentrate is diluted with water to the desired concentration. Vessels are filled with sand, active ingredient solution, an egg/larvae suspension of the southern root-knot nematode (Meloidogyne incognita) and lettuce seeds. The lettuce seeds germinate and the plants develop. The galls develop on the roots. After 14 days, the nematicidal efficacy in % is determined by the formation of galls. 100% means that no galls were found; 0% means that the number of galls on the treated plants corresponds to the untreated control.

Row | SMILES | LOGP_HCOOH [5] | LOGP_NEUTRAL [5] | efficacy (Phaedon cochleariae; application rate 500 g/ha) [%] | efficacy (Spodoptera frugiperda) [%] | efficacy (Tetranychus urticae; application rate 500 g/ha) [%] | efficacy (Myzus persicae [7]) | further results
1 | CCS(=O)(=O)c1cc(C(F)(F)F)cnc1-c1nc2cc(C(F)(F)F)cnc2n1C [Ex. 5 known from WO2013018928] | – | – | – | – | – | – | % efficacy (Myzus persicae [1]): 50%; % efficacy (Myzus persicae [2]; 2.4 g/ha): 0%; % efficacy (Myzus persicae [2]; 12 g/ha): 0%; % efficacy (Aphis gossypii [3]): 15%; % efficacy (Aphis gossypii [4]): 0%; % efficacy (Nephotettix cincticeps; 14 dat): 0%; % efficacy (Nephotettix cincticeps; 21 dat): 0%; % efficacy (Nephotettix cincticeps; 34 dat): 0%; % efficacy (Nilaparvata lugens; 21 dat): 35%; % efficacy (Nilaparvata lugens; 28 dat): 20%
2 | CCSc1cc(C(F)(F)F)cnc1-c1nc2cc(C(F)(F)F)ncc2n1C [Example I-2] | 3.52 | 3.48 | 100 | 100 | 90 | – | –
3 | Cn1c(-c2ccc(Cl)cc2S(C)(=O)=O)nc2cc(C(F)(F)F)ncc21 [Example I-11] | 2.39 | 2.34 | – | – | – | – | efficacy (Phaedon cochleariae; application rate 100 g/ha): 100%; efficacy (kill) (Myzus persicae [6]): 97%
4 | CCS(=O)(=O)c1ccccc1-c1nc2cc(C(F)(F)F)ncc2n1C [Example I-18] | 2.13 | 2.11 | 100 | – | – | 100% and 90% | efficacy (Ctenocephalides felis): 100%; efficacy (kill) (Lucilia cuprina): 100%
5 | CCSc1ccc(Cl)cc1-c1nc2cc(C(F)(F)F)ncc2n1C [Example I-19] | 3.43 | 3.38 | 100 | 83 | 90 | 90% | –
6 | CC[S+]([O-])c1ccccc1-c1nc2cc(C(F)(F)F)ncc2n1C (stereo not drawn) [Example I-22] | 1.90 | 1.87 | 100 | – | 90 | 100% | –
7 | CCSc1cc(Cl)ccc1-c1nc2cc(C(F)(F)F)ncc2n1C [Example I-42] | 3.46 | 3.39 | 100 | 100 | 90 | 90% | –
8 | CC[S+]([O-])c1cc(Cl)ccc1-c1nc2cc(C(F)(F)F)ncc2n1C (stereo not drawn) [Example I-44] | 2.45 | 2.36 | 100 | – | 90 | 100% | –
9 | CCS(=O)(=O)c1c(C(F)(F)F)ccnc1-c1nc2cc(C(F)(F)F)ncc2n1C [Example I-48] | 2.70 | 2.64 | 100 | 83 | – | 100% | efficacy (Tetranychus urticae; application rate 100 g/ha): 90%
10 | CCS(=O)(=O)c1cccnc1-c1nc2cc(C(F)(F)C(F)(F)F)ncc2n1C [Example I-68] | 2.50 | 2.46 | 100 | 100 | 100 | 90% | nematicidal efficacy (formation of galls) (Meloidogyne incognita): 100%
